The results in this text go back to patent US20090047314A1, “MICROENCAPSULATION SYSTEMS AND APPLICATIONS OF SAME” (Centre National de la Recherche Scientifique (C.N.R.S.), priority 2003, published 2009).

The nature of the data set: Encapsulation of molecule in the beads (determination by HPLC). Type of data set: physicochemical. The conditions noted are these: α-cyclodextrin/soya oil beads. As for the experimental part:
The procedure is carried out as described in Example 1, but using, as molecules of interest, molecules that are active in therapeutics or that can be used in cosmetics, such as pigments or dyes, vitamin E acetate, benzophenone or isotretinoin.
In addition, it was shown that 30% of vitamin E acetate is encapsulated (determination by HPLC).

On to `CC(=O)Oc1c(C)c(C)c2c(c1C)CCC(C)(CCC[C@H](C)CCC[C@H](C)CCCC(C)C)O2` (stereo partly shown) [vitamin E acetate], for which the “fraction of molecule encapsulated in the beads” value was 30%.
